Source: US20240238235A1, “METHODS AND COMPOSITIONS FOR TREATING PULMONARY ALVEOLAR PROTEINOSIS RELATED TO MARS MUTATIONS” (INSTITUT NATIONAL DE LA SANTÉ ET DE LA RECHERCHE MÉDICALE, priority 2021, published 2024)
Like-named read-outs stand apart in the source and are kept apart here.

Columns and labels:
[1] = tested on: pulmonary alveolar proteinosis related to MARS mutations
Text: Eight patients started the treatment from the age of 11 to 24 years old. […] In the 7 seven remaining patients, treatment was started less than one year ago and will be assessed in the next months.

[2] = tested on: pulmonary alveolar proteinosis related to MARS mutations; settings: P1, 3 and 4
Text: We compared the course of treated patients to that of patients reported by Enaud et al. 2 as well as seven patients diagnosed since this publication. Data collection and analysis for these patients were approved by the Institutional Review Board of the French Respiratory Society (CEPRO2013-019) and the CPP Île de France II (CPP2013-12-03 SC).
Several parameters were compared between treated patients and HC. We computed the difference between the values for each continuous variable at inclusion and at last follow-up for each treated patient, as well as between diagnosis and six months to one year from diagnosis for the HC. Differences were compared between groups using Mann-Whitney tests. For each categorical variable (i.e., weaning from oxygen and enteral nutrition), we compared the proportion of patients who were weaned from such support at the second assessment between groups using Fisher's exact test. A p-value<0.05 was considered statistically significant.

[3] = tested on: patients with MAT I/III deficiency; settings: large series of patients with MAT I/III deficiency; cited from earlier work
[4] = tested on: patients presenting pulmonary alveolar proteinosis due to the double mutation Ala393Thr/Ser567Leu in MARS
Text: (§1) The MetPAP study was registered at clinicaltrials.gov (NCT03887169). […] The secondary objectives were to determine the efficacy of such treatment.

yeast = settings: methionine supplementation in the culture medium; cited from earlier work
peripheral monocytes = settings: control = 100%
Description: Peripheral monocyte and phagocyte functions were assessed by quantifying ROS production. Whole blood collected from lithium heparinized tubes (500 μl) was incubated for 15 min at 37° C. with dihydrorhodamine 123[…] (Sigma-Aldrich). Samples were then treated for 1 h at 37° C. with GM-CSF (10 ng/ml; R&D Systems), followed by stimulation for 5 min with fMLF (10^-5M; Sigma-Aldrich). The reaction was stopped by adding 1 ml ice-cold lysis solution (BD Biosciences) and incubating for 5 min on ice. Samples were then washed with PBS (Sigma-Aldrich) and the pellets resuspended in 300 μl FacsFlow solution (BD Biosciences). Samples were analyzed by flow cytometry on a FACSCanto II (BD Biosciences). Phagocytes (neutrophils and monocytes) were selected on the FSC-SSC dot plot. Events (50,000) were recorded at a constant PMT voltage. Results are expressed as the index of stimulation (MIF DHE GM-CSF+fMLP/DHE GM-CSF alone).

[5] = Description: The level of methioninemia in a healthy subject should be measured on an empty stomach and should be less than 45 μM. Typically, in the subject affected by MARS mutations, the level of methioninemia to reach efficacy should be in the range of 45-500 μM (>45 μM at residual dosage and <500 μM at peak dosage 1 hour after the dose has been taken). The level of methioninemia is measured with the following methods. […] For accurate quantification, stable isotope internal standards of the same structure for each metabolite (Eurisotop, Saint Aubin, France) are added to samples before protein precipitation. Internal standards are labeled on all carbons and nitrogen(s) with following exceptions: glutamine 2,3,3,4,4-D5, asparagine ^13C4, tryptophan Indole-D5, citrulline ^13CD4 and homocysteine 3,3,3′,3′,4,4,4′,4′-D8. Samples are first derivatized using the AccQ Tag™ Ultra (Waters Corporation, Milford, MA, USA) according to manufacturer recommendations. Amino acid separation is performed with an Acquity™ UPLC system using a CORTECS™ UPLC C18 column (1.6 μm, 2.1×150 mm) coupled to microTQS™ tandem mass spectrometer (Waters Corporation, Milford, MA, USA). The run time for quantification of all amino acids is 12 min.
as §1
The frequency of medication was based on the known half-life of the moleculel and the peak was determined by performing kinetic measurements on the patients during the first day of supplementation.

CSCC[C@H](N)C(=O)O [methionine, L-methionine]
clinical outcome ([1]; 1 patient, treatment started 2 years ago): improve clinical respiratory status (regression of dry cough and exercise dyspnoea), to improve lung function (gain in forced vital capacity and diffuse capacity of carbon monoxide), and to improve chest CT scan (regression of ground glass opacities, stabilization of the fibrosis)
clinical outcome ([1]; 2 patients treated between 1 and 2 years of age): stop whole lung lavages, to “clean” the chest CT scan from the alveolar consolidations and stop the progression of fibrotic lesions, to catch-up on weight and to normalize liver blood tests and inflammatory markers
clinical outcome ([1]; 4 additional patients treated from diagnosis (3 to 6 months)): stop whole lung lavages or even to avoid it, to normalize the chest CT scan after 3 months of treatment, to normalize the liver blood tests and inflammatory markers, to catch-up on weight, and to wean off the oxygen and nutritional support initially required
change M0 to M6-M12 of blood neutrophils, CRP, albumin and GGT versus HC ([2]; p=0.011, 0.039, 0.006, 0.038): greater improvement
patients weaned off oxygen at the second assessment ([2]; vs 1/15 HC, p=0.056): 2/3
patients weaned off enteral nutrition at the second assessment ([2]; vs none of 18 HC, p=0.014): 2/3
mean plasma methionine values at which CNS abnormalities were observed [3]: > 800 µM
elevated transaminases (multiple of normal value) ([4]; P3, D21, judged not attributable to a toxic effect of methionine): > 3 N
Tolerance of methionine supplementation ([4]; during the protocol and after): well tolerated
growth and enzyme activity in yeast impaired by Ala393Thr/Ser567Leu mutations (yeast): restored
stimulation index relative to control (GM-CSF priming of ROS production by peripheral monocytes) (peripheral monocytes; P1, after three months of treatment (M3)): 109%
stimulation index relative to control (GM-CSF priming of ROS production by peripheral monocytes) (peripheral monocytes; P3, after three months of treatment (M3)): 73%
methioninemia at T0 (residual) ([5]; P3, D21 of treatment): 42 µM
time of peak plasma methionine after taking the medication ([5]; kinetic study in the patients): 1 h
residual and peak plasma methionine values over 24-h periods, days and months ([5]; treatment every 6 h): reproducible residual and peak values
